Test results: PMC5481520 (Microbial Biotechnology, 2017)

Target: T1, LdtR (Candidatus Liberibacter asiaticus, UniProt A0ABN4AZS1)
T1 construct: gene WSI_01095
Format: binding
Conditions: promoters of CLIBASIA_02120 and CLIBASIA_03520; pH 7.2, 150 mM KCl, 10 mM MgCl2, 37 °C

SMILES	EMSA, disruption of LdtR binding to promoter DNA
O=C(CCc1ccc(O)cc1)c1c(O)cc(O)cc1O [phloretin]	benzbromarone and phloretin disrupted the binding of LdtR to both promoters (Fig. S2)
CCc1oc2ccccc2c1C(=O)c1cc(Br)c(O)c(Br)c1 [benzbromarone]	benzbromarone and phloretin disrupted the binding of LdtR to both promoters (Fig. S2)
